According to ChEMBL document CHEMBL5608242 (J Med Chem, 2024):

How the values were obtained:
Histone deacetylase 1 [1] = biological target: T1, Histone deacetylase 1 (Homo sapiens, UniProt Q13547); test: biochemical
[2] = biological target: Histone deacetylase 3/Nuclear receptor corepressor 2 (HDAC3/NCoR2) (Homo sapiens, UniProt O15379); test: biochemical
[3] = biological target: T2, Protein deacetylase HDAC6 (Homo sapiens, UniProt Q9UBN7); test: biochemical
T2 sequence (Q9UBN7 whole entry): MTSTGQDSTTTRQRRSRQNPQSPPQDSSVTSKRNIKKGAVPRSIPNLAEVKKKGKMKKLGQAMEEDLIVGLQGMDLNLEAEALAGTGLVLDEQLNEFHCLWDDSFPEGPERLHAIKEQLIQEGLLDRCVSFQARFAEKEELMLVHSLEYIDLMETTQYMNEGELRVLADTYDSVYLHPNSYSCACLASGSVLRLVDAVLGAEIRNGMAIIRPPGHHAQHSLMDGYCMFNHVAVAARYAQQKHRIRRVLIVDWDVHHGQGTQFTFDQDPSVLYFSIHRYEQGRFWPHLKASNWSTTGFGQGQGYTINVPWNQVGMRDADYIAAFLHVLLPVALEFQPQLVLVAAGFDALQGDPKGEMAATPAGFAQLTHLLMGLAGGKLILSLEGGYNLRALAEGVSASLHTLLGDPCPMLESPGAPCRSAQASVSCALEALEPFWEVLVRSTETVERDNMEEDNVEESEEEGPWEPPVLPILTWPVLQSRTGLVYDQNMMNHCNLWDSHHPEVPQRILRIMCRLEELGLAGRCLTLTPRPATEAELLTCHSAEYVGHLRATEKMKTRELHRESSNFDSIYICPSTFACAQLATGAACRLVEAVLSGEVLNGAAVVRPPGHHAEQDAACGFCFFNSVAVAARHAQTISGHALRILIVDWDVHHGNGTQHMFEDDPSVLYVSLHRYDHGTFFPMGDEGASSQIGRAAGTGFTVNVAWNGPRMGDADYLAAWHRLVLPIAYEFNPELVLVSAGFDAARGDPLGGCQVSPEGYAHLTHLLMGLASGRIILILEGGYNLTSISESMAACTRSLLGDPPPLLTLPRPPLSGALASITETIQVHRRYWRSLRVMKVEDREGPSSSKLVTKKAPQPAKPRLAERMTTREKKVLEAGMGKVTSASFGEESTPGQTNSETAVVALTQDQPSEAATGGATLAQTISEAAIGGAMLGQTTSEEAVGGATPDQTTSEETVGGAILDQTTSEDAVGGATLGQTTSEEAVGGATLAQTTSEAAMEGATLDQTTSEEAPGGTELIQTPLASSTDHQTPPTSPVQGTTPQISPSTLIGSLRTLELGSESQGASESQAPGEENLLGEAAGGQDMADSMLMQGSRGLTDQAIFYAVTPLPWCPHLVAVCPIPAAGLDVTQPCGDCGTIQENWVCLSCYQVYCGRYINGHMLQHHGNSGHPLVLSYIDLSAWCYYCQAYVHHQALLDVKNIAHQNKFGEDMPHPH

[4] = biological target: T3, Amine oxidase [flavin-containing] B (Homo sapiens, UniProt P27338); conditions: read-out: INH
T3 sequence (P27338 whole entry): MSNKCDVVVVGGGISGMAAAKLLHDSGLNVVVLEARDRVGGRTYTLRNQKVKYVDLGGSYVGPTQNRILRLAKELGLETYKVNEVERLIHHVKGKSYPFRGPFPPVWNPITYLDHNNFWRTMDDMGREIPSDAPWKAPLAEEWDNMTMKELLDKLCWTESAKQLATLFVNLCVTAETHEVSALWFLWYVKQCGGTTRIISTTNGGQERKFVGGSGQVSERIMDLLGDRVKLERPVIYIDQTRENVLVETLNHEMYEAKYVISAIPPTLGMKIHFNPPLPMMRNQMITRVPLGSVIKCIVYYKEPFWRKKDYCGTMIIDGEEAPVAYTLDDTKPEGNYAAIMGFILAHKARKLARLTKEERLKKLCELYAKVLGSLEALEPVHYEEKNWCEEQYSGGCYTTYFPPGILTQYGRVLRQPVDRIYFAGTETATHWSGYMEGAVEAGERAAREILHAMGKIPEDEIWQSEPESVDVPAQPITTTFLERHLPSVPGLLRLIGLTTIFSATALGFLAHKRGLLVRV
Description: Inhibition of human recombinant MAO-B using para-tyramine as substrate at 1 uM by Amplex Red fluorimetric assay relative to control

Histone deacetylase 2 = Histone deacetylase 2 (Homo sapiens, UniProt Q92769); test: biochemical
Histone deacetylase 1 [5] = biological target: T1, Histone deacetylase 1; test: biochemical; remark: listed apart in the source
Cholinesterase = Cholinesterase (Equus caballus, UniProt P81908)
Chain of Cholinesterase (P81908 whole entry): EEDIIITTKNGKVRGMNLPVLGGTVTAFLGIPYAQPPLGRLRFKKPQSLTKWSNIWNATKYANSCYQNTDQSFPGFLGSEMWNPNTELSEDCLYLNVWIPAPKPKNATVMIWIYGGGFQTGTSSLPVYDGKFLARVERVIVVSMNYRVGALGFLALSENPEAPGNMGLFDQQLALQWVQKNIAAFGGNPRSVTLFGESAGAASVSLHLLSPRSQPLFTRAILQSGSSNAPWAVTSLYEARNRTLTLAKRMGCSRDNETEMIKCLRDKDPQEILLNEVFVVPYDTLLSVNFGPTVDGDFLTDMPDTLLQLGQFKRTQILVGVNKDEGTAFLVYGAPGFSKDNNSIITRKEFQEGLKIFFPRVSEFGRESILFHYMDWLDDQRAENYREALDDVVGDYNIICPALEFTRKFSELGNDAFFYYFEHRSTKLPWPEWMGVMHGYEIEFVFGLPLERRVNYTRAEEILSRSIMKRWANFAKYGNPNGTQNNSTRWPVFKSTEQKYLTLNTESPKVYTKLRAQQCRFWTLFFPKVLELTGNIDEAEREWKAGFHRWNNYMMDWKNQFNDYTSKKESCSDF

Chain of Histone deacetylase 3/Nuclear receptor corepressor 2 (HDAC3/NCoR2) (O15379 whole entry): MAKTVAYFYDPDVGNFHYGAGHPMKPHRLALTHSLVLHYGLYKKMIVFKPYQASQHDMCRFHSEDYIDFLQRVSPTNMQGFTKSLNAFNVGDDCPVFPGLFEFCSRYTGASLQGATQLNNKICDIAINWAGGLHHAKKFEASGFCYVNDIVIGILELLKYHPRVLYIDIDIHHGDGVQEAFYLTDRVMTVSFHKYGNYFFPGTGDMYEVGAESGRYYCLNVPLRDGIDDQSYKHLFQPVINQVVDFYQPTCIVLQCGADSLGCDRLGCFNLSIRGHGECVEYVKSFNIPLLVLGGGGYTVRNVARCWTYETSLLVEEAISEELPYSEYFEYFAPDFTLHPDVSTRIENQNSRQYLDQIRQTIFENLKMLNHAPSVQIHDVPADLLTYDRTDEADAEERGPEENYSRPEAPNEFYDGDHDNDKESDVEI
Chain of Histone deacetylase 3/Nuclear receptor corepressor 2 (HDAC3/NCoR2) (Q9Y618 whole entry, further chain): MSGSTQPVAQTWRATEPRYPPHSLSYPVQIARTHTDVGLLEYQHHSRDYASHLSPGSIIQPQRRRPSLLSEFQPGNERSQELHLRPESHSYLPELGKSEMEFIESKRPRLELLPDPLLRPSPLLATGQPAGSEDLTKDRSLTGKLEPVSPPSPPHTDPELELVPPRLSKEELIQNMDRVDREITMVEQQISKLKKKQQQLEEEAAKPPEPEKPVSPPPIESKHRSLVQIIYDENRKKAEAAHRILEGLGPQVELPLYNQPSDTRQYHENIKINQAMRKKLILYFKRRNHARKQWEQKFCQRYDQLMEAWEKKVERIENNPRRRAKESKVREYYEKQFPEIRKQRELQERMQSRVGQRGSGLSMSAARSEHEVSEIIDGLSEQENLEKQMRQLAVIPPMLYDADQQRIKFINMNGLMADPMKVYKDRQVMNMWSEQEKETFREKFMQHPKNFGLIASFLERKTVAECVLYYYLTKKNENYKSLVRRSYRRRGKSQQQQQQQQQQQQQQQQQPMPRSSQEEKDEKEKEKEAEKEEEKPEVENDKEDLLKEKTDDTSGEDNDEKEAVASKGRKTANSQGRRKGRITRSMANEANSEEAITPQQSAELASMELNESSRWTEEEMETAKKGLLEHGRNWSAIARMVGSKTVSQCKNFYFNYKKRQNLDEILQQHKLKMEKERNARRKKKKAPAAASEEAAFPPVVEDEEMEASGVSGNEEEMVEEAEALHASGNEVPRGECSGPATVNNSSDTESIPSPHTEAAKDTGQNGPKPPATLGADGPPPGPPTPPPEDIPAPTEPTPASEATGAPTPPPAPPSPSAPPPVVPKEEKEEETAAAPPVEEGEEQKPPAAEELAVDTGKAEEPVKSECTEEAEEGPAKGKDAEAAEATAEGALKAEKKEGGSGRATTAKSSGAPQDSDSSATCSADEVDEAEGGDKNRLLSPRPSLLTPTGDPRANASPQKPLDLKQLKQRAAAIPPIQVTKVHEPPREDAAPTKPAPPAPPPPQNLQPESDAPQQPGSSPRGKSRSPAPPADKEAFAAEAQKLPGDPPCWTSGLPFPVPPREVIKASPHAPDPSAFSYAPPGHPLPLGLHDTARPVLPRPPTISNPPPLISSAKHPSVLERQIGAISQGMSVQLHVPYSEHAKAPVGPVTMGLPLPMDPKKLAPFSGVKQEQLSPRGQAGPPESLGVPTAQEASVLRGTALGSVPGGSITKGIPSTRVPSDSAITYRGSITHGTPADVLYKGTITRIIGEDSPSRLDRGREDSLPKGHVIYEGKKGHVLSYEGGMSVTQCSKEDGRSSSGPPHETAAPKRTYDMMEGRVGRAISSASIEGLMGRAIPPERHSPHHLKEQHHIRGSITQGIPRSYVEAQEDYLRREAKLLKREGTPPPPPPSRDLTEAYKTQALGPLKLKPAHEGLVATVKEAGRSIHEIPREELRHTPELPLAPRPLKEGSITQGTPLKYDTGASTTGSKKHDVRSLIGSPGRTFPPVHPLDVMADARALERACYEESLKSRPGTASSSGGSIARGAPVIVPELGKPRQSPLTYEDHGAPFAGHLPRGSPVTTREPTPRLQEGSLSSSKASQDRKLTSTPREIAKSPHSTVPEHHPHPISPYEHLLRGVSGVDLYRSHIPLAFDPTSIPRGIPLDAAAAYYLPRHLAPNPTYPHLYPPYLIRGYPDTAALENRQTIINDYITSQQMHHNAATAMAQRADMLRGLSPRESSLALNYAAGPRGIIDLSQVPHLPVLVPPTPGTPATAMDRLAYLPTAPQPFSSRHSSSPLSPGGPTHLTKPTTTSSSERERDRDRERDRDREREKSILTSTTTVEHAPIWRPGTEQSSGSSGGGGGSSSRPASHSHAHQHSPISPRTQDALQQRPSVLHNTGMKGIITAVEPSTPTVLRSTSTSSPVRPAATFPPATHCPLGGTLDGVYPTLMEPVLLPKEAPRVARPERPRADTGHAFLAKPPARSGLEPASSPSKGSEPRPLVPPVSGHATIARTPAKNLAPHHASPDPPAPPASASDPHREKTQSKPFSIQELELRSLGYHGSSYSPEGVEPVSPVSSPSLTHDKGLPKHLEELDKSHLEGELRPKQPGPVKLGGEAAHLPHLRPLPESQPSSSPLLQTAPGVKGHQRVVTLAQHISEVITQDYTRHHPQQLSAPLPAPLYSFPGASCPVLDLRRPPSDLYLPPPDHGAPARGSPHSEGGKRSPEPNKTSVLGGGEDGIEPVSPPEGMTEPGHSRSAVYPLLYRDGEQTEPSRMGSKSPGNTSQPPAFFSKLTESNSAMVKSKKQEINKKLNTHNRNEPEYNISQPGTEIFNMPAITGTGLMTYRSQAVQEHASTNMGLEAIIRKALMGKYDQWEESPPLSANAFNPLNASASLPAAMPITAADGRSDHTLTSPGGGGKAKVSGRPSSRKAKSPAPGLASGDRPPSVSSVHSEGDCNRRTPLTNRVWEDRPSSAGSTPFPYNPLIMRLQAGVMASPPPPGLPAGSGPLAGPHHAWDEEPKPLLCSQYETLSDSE
T1 sequence (Q13547 whole entry): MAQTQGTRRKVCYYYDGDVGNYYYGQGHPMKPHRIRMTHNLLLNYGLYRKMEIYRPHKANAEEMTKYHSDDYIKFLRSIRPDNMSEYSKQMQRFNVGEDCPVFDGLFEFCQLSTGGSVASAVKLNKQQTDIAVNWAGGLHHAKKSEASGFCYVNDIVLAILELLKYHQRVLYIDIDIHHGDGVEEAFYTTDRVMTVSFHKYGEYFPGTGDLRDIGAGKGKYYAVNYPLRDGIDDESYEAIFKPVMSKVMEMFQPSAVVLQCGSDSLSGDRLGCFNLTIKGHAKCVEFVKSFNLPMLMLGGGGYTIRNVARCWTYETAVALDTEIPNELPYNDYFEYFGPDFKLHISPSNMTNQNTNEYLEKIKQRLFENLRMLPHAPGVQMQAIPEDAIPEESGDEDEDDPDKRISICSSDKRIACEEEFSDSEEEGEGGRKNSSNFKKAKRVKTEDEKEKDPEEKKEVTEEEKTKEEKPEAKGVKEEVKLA
Chain of Histone deacetylase 2 (Q92769 whole entry): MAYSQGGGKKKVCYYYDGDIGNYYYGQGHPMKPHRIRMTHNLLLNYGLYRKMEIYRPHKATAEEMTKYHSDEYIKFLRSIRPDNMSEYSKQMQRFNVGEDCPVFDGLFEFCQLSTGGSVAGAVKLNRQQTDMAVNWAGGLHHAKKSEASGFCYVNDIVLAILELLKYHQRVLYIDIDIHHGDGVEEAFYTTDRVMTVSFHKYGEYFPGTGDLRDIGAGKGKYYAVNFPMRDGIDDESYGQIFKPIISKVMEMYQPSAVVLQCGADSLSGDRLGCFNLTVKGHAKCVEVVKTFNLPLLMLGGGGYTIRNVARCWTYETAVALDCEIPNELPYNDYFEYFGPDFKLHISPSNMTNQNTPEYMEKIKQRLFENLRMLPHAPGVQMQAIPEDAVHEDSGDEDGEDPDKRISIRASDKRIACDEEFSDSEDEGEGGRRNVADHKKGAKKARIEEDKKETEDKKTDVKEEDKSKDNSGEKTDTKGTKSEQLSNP

SMILES | IC50 [3] [µM] | IC50 (Histone deacetylase 1 [5]) [µM] | other results
C#CCN1CCN(CCCOc2ccc3c(ccn3S(=O)(=O)c3ccc(C(=O)NO)cc3)c2)CC1 | – | – | inhibition at 1 µM [4]: 28%; IC50 (Histone deacetylase 2): 5.41 µM; IC50 [2]: 2.71 µM
O=C(NO)c1ccc(S(=O)(=O)n2ccc3cc(OCCCN4CCCCC4)ccc32)cc1 | – | 0.735 | inhibition at 1 µM [4]: < 10%; IC50 (Histone deacetylase 2): 1.92 µM; IC50 [2]: 0.937 µM
O=C(NO)c1ccc(S(=O)(=O)n2ccc3cc(OCc4ccccc4)ccc32)cc1 | – | 3.99 | –
COc1ccc2c(ccn2S(=O)(=O)c2ccc(C(=O)NN)cc2)c1 | > 10 | > 10 | –
C#CCN1CCN(CCCOc2ccc3c(ccn3S(=O)(=O)c3ccc(C(=O)NNCCC)cc3)c2)CC1 | > 10 | – | IC50 (Cholinesterase): 8.81 µM
NNC(=O)c1ccc(S(=O)(=O)n2ccc3cc(OCc4ccccc4)ccc32)cc1 | > 10 | > 10 | –
Nc1ccccc1NC(=O)c1ccc(S(=O)(=O)n2ccc3cc(OCCCN4CCCCC4)ccc32)cc1 | > 10 | – | –
CCCNNC(=O)c1ccc(S(=O)(=O)n2ccc3cc(OC)ccc32)cc1 | > 10 | – | inhibition at 1 µM [4]: < 10%

The next lines start with results.

IC50 [3] [µM] | IC50 (Histone deacetylase 1 [5]) [µM] | SMILES | other results
> 10 | – | C#CCN(C)Cc1cc2cc(OCCCN3CCCCC3)ccc2n1C | IC50 (Histone deacetylase 1 [1]): > 10 µM; IC50 [2]: > 10 µM
0.168 | – | COc1ccc2c(ccn2S(=O)(=O)c2ccc(C(=O)NO)cc2)c1 | –
> 3.33 | – | C#CCN1CCN(CCCOc2ccc3c(ccn3S(=O)(=O)c3ccc(C(=O)Nc4ccccc4N)cc3)c2)CC1 | –
> 10 | – | CCCNNC(=O)c1ccc(S(=O)(=O)n2ccc3cc(OCCCN4CCCCC4)ccc32)cc1 | inhibition at 1 µM [4]: < 10%
> 10 | > 10 | NNC(=O)c1ccc(S(=O)(=O)n2ccc3cc(OCCCN4CCCCC4)ccc32)cc1 | –
> 10 | – | Nc1ccccc1NC(=O)c1ccc(S(=O)(=O)n2ccc3cc(OCc4ccccc4)ccc32)cc1 | –
> 10 | – | CCCN(CCC)NC(=O)c1ccc(S(=O)(=O)n2ccc3cc(OC)ccc32)cc1 | IC50 (Histone deacetylase 1 [1]): > 10 µM
> 10 | > 10 | C#CCN1CCN(CCCOc2ccc3c(ccn3S(=O)(=O)c3ccc(C(=O)NN)cc3)c2)CC1 | –
